The values below come from the PolyMetriX glass transition set.

Structures are written as SMILES.

For `*=NP(=NP(=NC(=*)Oc1ccc(C(=O)OC)cc1)(Oc1ccc(C(=O)OC)cc1)Oc1ccc(C(=O)OC)cc1)(Oc1ccc(C(=O)OC)cc1)Oc1ccc(C(=O)OC)cc1` (repeat unit), the glass transition temperature was 52.00 °C. The molecule `*=NP(=NP(=NC(=*)Oc1ccc(C(C)(C)C)cc1)(Oc1ccc(C(C)(C)C)cc1)Oc1ccc(C(C)(C)C)cc1)(Oc1ccc(C(C)(C)C)cc1)Oc1ccc(C(C)(C)C)cc1` (repeat unit) came in with a glass transition temperature of 74.00 °C. `*=NP(=NP(=NC(=*)Oc1ccc(C(C)(C)c2ccccc2)cc1)(Oc1ccc(C(C)(C)c2ccccc2)cc1)Oc1ccc(C(C)(C)c2ccccc2)cc1)(Oc1ccc(C(C)(C)c2ccccc2)cc1)Oc1ccc(C(C)(C)c2ccccc2)cc1` (repeat unit): the glass transition temperature stood at 55.00 °C.

Turning to `*=NP(=NP(=NC(=*)Oc1ccccc1)(Oc1ccccc1)Oc1ccccc1)(Oc1ccccc1)Oc1ccccc1` (repeat unit), the glass transition temperature was found to be 18.00 °C. In turn, `*=NP(=NP(=NC(=*)Oc1ccccc1C(F)(F)F)(Oc1ccccc1C(F)(F)F)Oc1ccccc1C(F)(F)F)(Oc1ccccc1C(F)(F)F)Oc1ccccc1C(F)(F)F` (repeat unit) came in with a glass transition temperature of -20.00 °C.

`*CC(*)(C#N)C(=O)OC(C)C` (repeat unit): the glass transition temperature came to 66.00 °C.

In turn, `*CC(*)(C#N)C(=O)OCC` (repeat unit) came in with a glass transition temperature of 115.00 °C. Turning to `*CC(*)(C#N)C(=O)OCC(C)C` (repeat unit), the glass transition temperature is 51.00 °C.

Consider `*CC(*)(C)C(=O)NC(=O)OC(C)COc1c(Br)cc(S(=O)(=O)c2cc(Br)c(OCC(C)O)c(Br)c2)cc1Br` (repeat unit), for which the glass transition temperature came out at 45.00 °C. The same measure for `*CC(*)(C)C(=O)NC(=O)OCCOc1c(Br)cc(S(=O)(=O)c2cc(Br)c(OCCO)c(Br)c2)cc1Br` (repeat unit): 110.00 °C.

`*CC(*)(C)C(=O)NC(=O)OCCOc1ccc(S(=O)(=O)c2ccc(OCCO)cc2)cc1` (repeat unit) displayed a glass transition temperature of 131.00 °C.

Regarding `*CC(*)(C)C(=O)NC(=O)Oc1c(Br)cc(S(=O)(=O)c2cc(Br)c(O)c(Br)c2)cc1Br` (repeat unit), the glass transition temperature came out at 116.00 °C. The same measure for `*CC(*)(C)C(=O)Nc1ccc(C(=O)/C=C/c2ccc(OC)cc2)cc1` (repeat unit): 35.00 °C. `*CC(*)(C)C(=O)OC(COc1cccc2ccccc12)COc1cccc2ccccc12` (repeat unit) had a glass transition temperature of 80.00 °C. Molecule `*CC(*)(C)C(=O)OC(F)(F)C(F)(F)C(F)(F)C(F)(F)C(F)(F)C(F)(F)C(F)(F)C(F)(F)F` (repeat unit) had a glass transition temperature of 49.00 °C. As to `*CC(*)(C)C(=O)OC1(C)C2CC3CC(C2)CC1C3` (repeat unit), the glass transition temperature is 165.00 °C. Take `*CC(*)(C)C(=O)OC1(C)CCOC(=O)C1` (repeat unit): the glass transition temperature was 110.00 °C. For `*CC(*)(C)C(=O)OC1CC(C)CCC1C(C)C` (repeat unit) the value was 147.00 °C; for `*CC(*)(C)C(=O)OC1CC2CC1C1C3CCC(C3)C21` (repeat unit), 199.00 °C; for `*CC(*)(C)C(=O)OC1CCC(C)CC1` (repeat unit), 109.00 °C. Take `*CC(*)(C)C(=O)OC1CCC1` (repeat unit): the glass transition temperature was 119.00 °C. As to `*CC(*)(C)C(=O)OC1CCCC1` (repeat unit), the glass transition temperature came out at 75.00 °C. The molecule `*CC(*)(C)C(=O)OC1CCCCC1C` (repeat unit) yielded a glass transition temperature of 85.00 °C. Take `*CC(*)(C)C(=O)OC1COC(CP(=O)(OCC)OCC)OC1` (repeat unit): the glass transition temperature was found to be 101.50 °C. `*CC(*)(C)C(=O)OCC#CO[Si](C)(C)C` (repeat unit) came in with a glass transition temperature of 57.00 °C. `*CC(*)(C)C(=O)OCC#N` (repeat unit) had a glass transition temperature of 91.00 °C.

`*CC(*)(C)C(=O)OCC(=O)N1CCCC1` (repeat unit) showed a glass transition temperature of 144.00 °C. For `*CC(*)(C)C(=O)OCC(=O)c1ccccc1` (repeat unit), the glass transition temperature amounted to 92.50 °C.

Regarding `*CC(*)(C)C(=O)OCC(F)(F)C(F)(F)C(F)(F)C(F)(F)C(F)(F)C(F)F` (repeat unit), the glass transition temperature stood at 12.50 °C.

`*CC(*)(C)C(=O)OCC(F)(F)C(F)(F)C(F)(F)C(F)F` (repeat unit) came in with a glass transition temperature of 47.00 °C. The same measure for `*CC(*)(C)C(=O)OCC(F)(F)C(F)(F)F` (repeat unit): 77.00 °C; for `*CC(*)(C)C(=O)OCC(O)C1CC(C)(c2ccccc2)C1` (repeat unit): 105.00 °C; for `*CC(*)(C)C(=O)OCC(O)CO` (repeat unit): 84.40 °C. Molecule `*CC(*)(C)C(=O)OCC1(C)COC(C)(C)OC1` (repeat unit) registered a glass transition temperature of 108.00 °C. The molecule `*CC(*)(C)C(=O)OCC1CC(NC(=O)OC(C)(C)C)CN1C(=O)OC(C)(C)C` (repeat unit) displayed a glass transition temperature of 127.00 °C. The molecule `*CC(*)(C)C(=O)OCC1CCCO1` (repeat unit) had a glass transition temperature of 105.00 °C. In turn, `*CC(*)(C)C(=O)OCC1COC(c2ccccc2)O1` (repeat unit) came in with a glass transition temperature of 130.00 °C. The molecule `*CC(*)(C)C(=O)OCC1COCCOCCOCCOCCOC1` (repeat unit) returned a glass transition temperature of 31.00 °C. The same measure for `*CC(*)(C)C(=O)OCCC(F)(F)C(F)(F)C(F)(F)C(F)(F)C(F)(F)C(F)(F)C(F)(F)C(F)(F)F` (repeat unit): 47.00 °C; for `*CC(*)(C)C(=O)OCCC1CCN(CCCCCCOc2ccc(/N=N/c3ccc([N+](=O)[O-])cc3)cc2)CC1` (repeat unit): 27.00 °C; for `*CC(*)(C)C(=O)OCCCC1CCCCC1` (repeat unit): 60.00 °C. Turning to `*CC(*)(C)C(=O)OCCCCC(F)(F)C(F)(F)C(F)(F)C(F)(F)C(F)(F)C(F)(F)F` (repeat unit), the glass transition temperature is 23.00 °C.

Consider `*CC(*)(C)C(=O)OCCCCC1CCCCC1` (repeat unit), for which the glass transition temperature stood at 43.00 °C. The same measure for `*CC(*)(C)C(=O)OCCCCCC(=O)Oc1ccc(OC(=O)c2ccc(OC)cc2)cc1` (repeat unit): 40.00 °C; for `*CC(*)(C)C(=O)OCCCCCC(=O)Oc1ccc(OC(=O)c2ccc(OCCCC)cc2)cc1` (repeat unit): 40.00 °C. For `*CC(*)(C)C(=O)OCCCCCCC(F)(F)C(F)(F)C(F)(F)C(F)(F)F` (repeat unit), the glass transition temperature was determined as 23.00 °C. `*CC(*)(C)C(=O)OCCCCCCCC` (repeat unit): the glass transition temperature was -11.00 °C. For `*CC(*)(C)C(=O)OCCCCCCCCCCCC` (repeat unit) the value was -47.90 °C. `*CC(*)(C)C(=O)OCCCCCCCCCCCOc1ccc(/C=N/c2ccc(C#N)cc2)cc1` (repeat unit): the glass transition temperature came out at 23.00 °C. Take `*CC(*)(C)C(=O)OCCCCCCCCCCCn1c2ccccc2c2ccccc21` (repeat unit): the glass transition temperature came to 31.00 °C. The same measure for `*CC(*)(C)C(=O)OCCCCCCCCCCOc1ccc(/N=N/c2ccc(C#N)cc2)cc1` (repeat unit): 51.00 °C; for `*CC(*)(C)C(=O)OCCCCCCCCCCOc1ccc(C#Cc2cc(C)c(/C=C/c3ccncc3)cc2C)cc1` (repeat unit): 65.40 °C; for `*CC(*)(C)C(=O)OCCCCCCCCCCOc1ccc(OC(=O)c2ccc(OC)cc2)cc1` (repeat unit): 21.00 °C.

The molecule `*CC(*)(C)C(=O)OCCCCCCCCCCOc1ccc(OC(=O)c2ccc(OCCCCCC)cc2)cc1` (repeat unit) displayed a glass transition temperature of 41.00 °C. For `*CC(*)(C)C(=O)OCCCCCCCCCCOc1ccc(OC(=O)c2ccc(OCCCCCCCC)cc2)cc1` (repeat unit) the value was 12.00 °C; for `*CC(*)(C)C(=O)OCCCCCCCCCCOc1ccc2cc(C(=O)Oc3ccccc3)ccc2c1` (repeat unit), 24.00 °C; for `*CC(*)(C)C(=O)OCCCCCCCCCCn1c2ccccc2c2cc(/C=C(\C#N)c3ccc([N+](=O)[O-])cc3)ccc21` (repeat unit), 40.00 °C. In turn, `*CC(*)(C)C(=O)OCCCCCCCCCCn1c2ccccc2c2cc(/C=C/C3=C(C#N)C(=C(C#N)C#N)OC3(C)C)ccc21` (repeat unit) displayed a glass transition temperature of 55.00 °C.

For the molecule `*CC(*)(C)C(=O)OCCCCCCCCCCn1c2ccccc2c2cc(/N=N/c3ccc([N+](=O)[O-])cc3)ccc21` (repeat unit), the glass transition temperature worked out at 36.00 °C. With `*CC(*)(C)C(=O)OCCCCCCCCCCn1c2ccccc2c2cc(/N=N/c3ccc([N+](=O)[O-])cc3[N+](=O)[O-])ccc21` (repeat unit), the glass transition temperature came to 60.00 °C. `*CC(*)(C)C(=O)OCCCCCCCCCOc1ccc2cc(C(=O)Oc3ccccc3)ccc2c1` (repeat unit) yielded a glass transition temperature of 18.00 °C. As for `*CC(*)(C)C(=O)OCCCCCCCCOc1ccc(/N=N/c2ccc(C#N)cc2)cc1` (repeat unit), the glass transition temperature is 35.00 °C.

For the molecule `*CC(O)CN(C)S(=O)(=O)c1ccc(-c2ccc(S(=O)(=O)N(C)CC(O)COc3ccc(C(C)(C)c4ccc(O*)cc4)cc3)cc2)cc1` (repeat unit), the glass transition temperature stood at 101.00 °C. `*CC(O)CN(C)S(=O)(=O)c1ccc(-c2ccc(S(=O)(=O)N(C)CC(O)COc3ccc(O*)cc3)cc2)cc1` (repeat unit) had a glass transition temperature of 84.00 °C. As to `*CC(O)CN(C)S(=O)(=O)c1cccc(S(=O)(=O)N(C)CC(O)COc2ccc(O*)cc2)c1` (repeat unit), the glass transition temperature was determined as 66.00 °C. Turning to `*CC(O*)c1ccccc1` (repeat unit), the glass transition temperature came to 34.00 °C. Molecule `*CC(OC)C(C)(C(=O)OC)C(*)(C)C(=O)OC` (repeat unit) yielded a glass transition temperature of 134.00 °C.
